Patent publication US12291519B2, “2-hydroxycycloalkane-1-carbamoyl” (Idorsia Pharmaceuticals Ltd, priority 2019, dated 2025)

How the values were obtained:
human Gal-1 (hGal-1) = assay: Competitive binding assay: biotinylated hGal-1 binding to microplate-adsorbed asialofetuin (ASF); settings: Activity on hGal-1; binding of biotinylated hGal-1 to ASF-coated plates; mean values
Procedure, shortened: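 Biotinylated hGal-1 (300–1000 ng/mL; optionally a cysteine-free all-serine variant) incubated 3 h at 4 °C with compound on asialofetuin-coated plates, then streptavidin-peroxidase 1 h at 4 °C. ABTS readout at OD 410 nm after 30–45 min; IC50 given as mean of several runs.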

human Gal-3 (hGal-3) = human Gal-3 (hGal-3) (Homo sapiens (Human), UniProt P17931); assay: Competitive binding assay: biotinylated hGal-3 binding to microplate-adsorbed asialofetuin (ASF); settings: Activity on hGal-3; binding of biotinylated hGal-3 to ASF-coated plates; mean values
Procedure, shortened: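 Serially diluted compounds competed with biotinylated human Gal-3 for binding to plate-adsorbed asialofetuin over 3 h at 4 °C. Bound Gal-3 was detected with streptavidin-peroxidase (80 ng/mL, 1 h, 4 °C) and ABTS substrate. IC50 values are means of several measurements.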

Chain of human Gal-1 (hGal-1) (P09382 2-135 limits assumed): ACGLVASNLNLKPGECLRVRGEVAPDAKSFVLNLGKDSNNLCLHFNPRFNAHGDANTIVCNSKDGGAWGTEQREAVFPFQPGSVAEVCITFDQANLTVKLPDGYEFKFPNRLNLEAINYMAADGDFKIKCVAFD
Chain of human Gal-3 (hGal-3) (P17931 whole entry): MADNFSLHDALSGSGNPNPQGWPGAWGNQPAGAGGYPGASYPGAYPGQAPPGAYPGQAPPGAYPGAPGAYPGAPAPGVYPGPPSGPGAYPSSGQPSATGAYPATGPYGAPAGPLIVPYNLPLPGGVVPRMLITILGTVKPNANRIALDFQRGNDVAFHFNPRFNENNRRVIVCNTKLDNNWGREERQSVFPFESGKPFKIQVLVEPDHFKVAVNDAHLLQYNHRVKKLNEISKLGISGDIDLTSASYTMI

Row | IC50 (human Gal-1 (hGal-1)) | IC50 (human Gal-3 (hGal-3)) | SMILES
1 | 0.924 µM | 0.053 µM | CO[C@@H]1[C@@H](n2cc(-c3cc(F)c(F)c(Cl)c3)nn2)[C@@H](O)[C@@H](CO)O[C@H]1C(=O)N(c1ccc(F)c(F)c1)[C@H]1CCCC[C@@H]1O [Example 130, (2R,3R,4S,5R,6R)-4-(4-(3-chloro-4,5-difluorophenyl)-1H-1,2,3-triazol-1-yl)-N-(3,4-difluorophenyl)-5-hydroxy-N-((1S,2S)-2-hydroxycyclohexyl)-6-(hydroxymethyl)-3-methoxytetrahydro-2H-pyran-2-carboxamide]
2 | 0.422 µM | 0.021 µM | CO[C@@H]1[C@@H](n2cc(-c3cc(F)c(F)c(F)c3)nn2)[C@@H](O)[C@@H](CO)O[C@H]1C(=O)N(c1cc(F)cc(Br)c1)[C@H]1CCCC[C@@H]1O [Example 120, (2R,3R,4S,5R,6R)-N-(3-bromo-5-fluorophenyl)-5-hydroxy-N-((1S,2S)-2-hydroxycyclohexyl)-6-(hydroxymethyl)-3-methoxy-4-(4-(3,4,5-trifluorophenyl)-1H-1,2,3-triazol-1-yl)tetrahydro-2H-pyran-2-carboxamide]
3 | 0.671 µM | 0.033 µM | CO[C@@H]1[C@@H](n2cc(-c3cc(F)cc(Cl)c3)nn2)[C@@H](O)[C@@H](CO)O[C@H]1C(=O)N(c1cc(C)cc(C#N)c1)[C@H]1CCCC[C@@H]1O [Example 140, (2R,3R,4S,5R,6R)-4-(4-(3-chloro-5-fluorophenyl)-1H-1,2,3-triazol-1-yl)-N-(3-cyano-5-methylphenyl)-5-hydroxy-N-((1S,2S)-2-hydroxycyclohexyl)-6-(hydroxymethyl)-3-methoxytetrahydro-2H-pyran-2-carboxamide]
4 | 0.534 µM | 0.095 µM | O=C([C@@H]1O[C@H](CO)[C@H](O)[C@H](n2cc(-c3cc(F)c(F)c(Cl)c3)nn2)[C@H]1O)N(Cc1ccccc1C(F)(F)F)[C@H]1CCCC[C@@H]1O [Example 66, (2R,3R,4S,5R,6R)-4-(4-(3-chloro-4,5-difluorophenyl)-1H-1,2,3-triazol-1-yl)-3,5-dihydroxy-N-((1S,2S)-2-hydroxycyclohexyl)-6-(hydroxymethyl)-N-(2-(trifluoromethyl)benzyl)tetrahydro-2H-pyran-2-carboxamide]
5 | 0.665 µM | 0.016 µM | CO[C@@H]1[C@@H](n2cc(-c3cc(F)c(F)c(F)c3)nn2)[C@@H](O)[C@@H](CO)O[C@H]1C(=O)N(c1cc(Cl)cc(Cl)c1)[C@H]1CCCC[C@@H]1O [Example 60]
6 | 0.158 µM | 0.008 µM | CO[C@@H]1[C@@H](n2cc(-c3ccc(C)c(F)c3)nn2)[C@@H](O)[C@@H](CO)O[C@H]1C(=O)N(c1cc(Br)cc(C#N)c1)[C@H]1CCCC[C@@H]1O [Example 200, (2R,3R,4S,5R,6R)-N-(3-bromo-5-cyanophenyl)-4-(4-(3-fluoro-4-methylphenyl)-1H-1,2,3-triazol-1-yl)-5-hydroxy-N-((1S,2S)-2-hydroxycyclohexyl)-6-(hydroxymethyl)-3-methoxytetrahydro-2H-pyran-2-carboxamide]
7 | 10.7 µM | 0.112 µM | O=C([C@@H]1O[C@H](CO)[C@H](O)[C@H](n2cc(-c3cc(F)c(F)c(F)c3)nn2)[C@H]1O)N(Cc1cnc(N2CCOCC2)s1)[C@H]1CCCC[C@@H]1O [Example 21]
8 | 0.449 µM | 0.019 µM | CO[C@@H]1[C@@H](n2cc(-c3cc(F)c(F)c(F)c3)nn2)[C@@H](O)[C@@H](CO)O[C@H]1C(=O)N(c1cc(F)cc(Cl)c1)[C@H]1CCCC[C@@H]1O [Example 121, (2R,3R,4S,5R,6R)-N-(3-chloro-5-fluorophenyl)-5-hydroxy-N-((1S,2S)-2-hydroxycyclohexyl)-6-(hydroxymethyl)-3-methoxy-4-(4-(3,4,5-trifluorophenyl)-1H-1,2,3-triazol-1-yl)tetrahydro-2H-pyran-2-carboxamide]
9 | 0.157 µM | 0.013 µM | CO[C@@H]1[C@@H](n2cc(-c3cc(F)c(F)c(F)c3)nn2)[C@@H](O)[C@@H](CO)O[C@H]1C(=O)N(c1cc(Cl)cc(C#N)c1)[C@H]1CCCC[C@@H]1O [Example 88, (2R,3R,4S,5R,6R)-N-(3-chloro-5-cyanophenyl)-5-hydroxy-N-((1S,2S)-2-hydroxycyclohexyl)-6-(hydroxymethyl)-3-methoxy-4-(4-(3,4,5-trifluorophenyl)-1H-1,2,3-triazol-1-yl)tetrahydro-2H-pyran-2-carboxamide]
10 | 1.9 µM | 0.025 µM | CO[C@@H]1[C@@H](n2cc(-c3cc(F)cc(F)c3)nn2)[C@@H](O)[C@@H](CO)O[C@H]1C(=O)N(c1cccc(Br)c1)[C@H]1CCCC[C@@H]1O [Example 84, (2R,3R,4S,5R,6R)-N-(3-bromophenyl)-4-(4-(3,5-difluorophenyl)-1H-1,2,3-triazol-1-yl)-5-hydroxy-N-((1S,2S)-2-hydroxycyclohexyl)-6-(hydroxymethyl)-3-methoxytetrahydro-2H-pyran-2-carboxamide]
11 | 1.95 µM | 0.026 µM | CO[C@@H]1[C@@H](n2cc(-c3cc(F)c(F)c(F)c3)nn2)[C@@H](O)[C@@H](CO)O[C@H]1C(=O)N(c1cccc(C(F)(F)F)c1)[C@H]1CCCC[C@@H]1O [Example 116, (2R,3R,4S,5R,6R)-5-hydroxy-N-((1S,2S)-2-hydroxycyclohexyl)-6-(hydroxymethyl)-3-methoxy-N-(3-(trifluoromethyl)phenyl)-4-(4-(3,4,5-trifluorophenyl)-1H-1,2,3-triazol-1-yl)tetrahydro-2H-pyran-2-carboxamide]
12 | 0.726 µM | 0.061 µM | CO[C@@H]1[C@@H](n2cc(-c3cc(F)cc(Br)c3)nn2)[C@@H](O)[C@@H](CO)O[C@H]1C(=O)N(c1cc(Cl)cc(Cl)c1)[C@H]1CCCC[C@@H]1O [Example 144, (2R,3R,4S,5R,6R)-4-(4-(3-bromo-5-fluorophenyl)-1H-1,2,3-triazol-1-yl)-N-(3,5-dichlorophenyl)-5-hydroxy-N-((1S,2S)-2-hydroxycyclohexyl)-6-(hydroxymethyl)-3-methoxytetrahydro-2H-pyran-2-carboxamide]
13 | 0.75 µM | 0.04 µM | COc1cc(F)c(F)cc1-c1cn([C@H]2[C@@H](O)[C@@H](CO)O[C@@H](C(=O)N(c3cc(Cl)cc(C#N)c3)[C@H]3CCCC[C@@H]3O)[C@@H]2OC)nn1 [Example 174, (2R,3R,4S,5R,6R)-N-(3-chloro-5-cyanophenyl)-4-(4-(4,5-difluoro-2-methoxyphenyl)-1H-1,2,3-triazol-1-yl)-5-hydroxy-N-((1S,2S)-2-hydroxycyclohexyl)-6-(hydroxymethyl)-3-methoxytetrahydro-2H-pyran-2-carboxamide]
14 | 4.75 µM | 0.043 µM | CO[C@@H]1[C@@H](n2cc(-c3cc(F)c(F)c(F)c3)nn2)[C@@H](O)[C@@H](CO)O[C@H]1C(=O)N(c1cccc(C)c1)[C@H]1CCCC[C@@H]1O [Example 122, (2R,3R,4S,5R,6R)-5-hydroxy-N-((1S,2S)-2-hydroxycyclohexyl)-6-(hydroxymethyl)-3-methoxy-N-(m-tolyl)-4-(4-(3,4,5-trifluorophenyl)-1H-1,2,3-triazol-1-yl)tetrahydro-2H-pyran-2-carboxamide]
15 | 1.68 µM | 0.207 µM | CO[C@@H]1[C@@H](n2cc(-c3cc(F)c(F)c(F)c3)nn2)[C@@H](O)[C@@H](CO)O[C@H]1C(=O)N(Cc1ccsc1C)[C@H]1CCCC[C@@H]1O [Example 38, (2R,3R,4S,5R,6R)-5-hydroxy-N-((1S,2S)-2-hydroxycyclohexyl)-6-(hydroxymethyl)-3-methoxy-N-((2-methylthiophen-3-yl)methyl)-4-(4-(3,4,5-trifluorophenyl)-1H-1,2,3-triazol-1-yl)tetrahydro-2H-pyran-2-carboxamide]
